From patent publication US9243281B2, “Neuroprotective chemicals and methods for identifying and using same” (Board of Regents of The University of Texas System, priority 2013, dated 2016) come the findings set out here.

Test [1] concerns hippocampal neurogenesis (Dentate Gyrus). Kind of test: in vivo neurogenesis assay (BrdU+ cells in dentate gyrus). On the set-up: species or system mice. An outline of the steps: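 New hippocampal cells were tracked by daily BrdU injections and anti-BrdU staining of brain sections. Adult mice (two per pool of ten compounds) got week-long intracerebroventricular infusion by mini-pump, dosed for mid-nanomolar exposure.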

For a further test, the target named is T1, p70 (NAMPT) (Homo sapiens, UniProt P43490).
T1 construct: endogenous in cells; host or cells: H2122 lung cancer cells
Briefly: binding competition for photo-crosslinking of P7C3-S326 to p70 in H2122 cells. The settings on record: 0.3 μM P7C3-S326 plus 5 μM competitor, p70 band intensity, P7C3-S326 alone compared with plus competitor, vehicle 1.0. The method in brief: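 Competition for photo-crosslinking: P7C3 analogs (5 uM) were added alongside the 0.3 μM P7C3-S326 probe to H2122 cells for 2 hours before 15 minutes of 306 nm UV irradiation. In-gel fluorescence of the p70 band after click labeling was normalized to DMSO.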

The mark [2] stands for this setting: living mice, vehicle (DMSO) 7.3.

T1 sequence (P43490 whole entry): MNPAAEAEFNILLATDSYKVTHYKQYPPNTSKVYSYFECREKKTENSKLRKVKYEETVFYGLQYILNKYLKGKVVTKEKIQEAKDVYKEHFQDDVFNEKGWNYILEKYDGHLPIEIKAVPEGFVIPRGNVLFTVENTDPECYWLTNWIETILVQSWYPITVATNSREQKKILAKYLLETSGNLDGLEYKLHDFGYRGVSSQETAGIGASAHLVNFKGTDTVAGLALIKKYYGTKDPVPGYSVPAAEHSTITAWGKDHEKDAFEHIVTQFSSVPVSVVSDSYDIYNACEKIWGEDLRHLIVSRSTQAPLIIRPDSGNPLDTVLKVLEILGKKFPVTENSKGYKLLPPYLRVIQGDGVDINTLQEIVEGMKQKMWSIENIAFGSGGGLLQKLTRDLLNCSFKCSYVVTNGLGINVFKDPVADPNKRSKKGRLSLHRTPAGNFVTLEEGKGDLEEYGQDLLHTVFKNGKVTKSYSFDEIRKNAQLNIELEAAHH

For the compound `Cc1cc2c3cc(Br)ccc3n(CC(O)COc3ccccc3)c2cn1` (stereo not shown) [S190], the “Neurogenesis # BrdU+ Cells (X10E06)/mm3 Dentate Gyrus” value (shortened to “Neurogenesis # BrdU+ Cells”) in test [1] (setting [2]) was 8.4 (X10E06)/mm3. At p70 (NAMPT), the Binding competition was 4.1.
Taken in the same sequence, the figures for `N#Cc1ccc2c(c1)c1cc(Br)ccc1n2CC(=O)O` [S224] were 10.1 (X10E06)/mm3 and 1.3.
For `O=S(=O)(CC(O)Cn1c2ccc(Br)cc2c2cc(Br)ccc21)c1ccc(O)cc1` (stereo not shown) [S94], the “Neurogenesis # BrdU+ Cells” value in test [1] (setting [2]) is reported as 8.5 (X10E06)/mm3. Further, on p70 (NAMPT), the Binding competition is reported as 3.8.
The like results for `CC(=O)NCCOCC(O)Cn1c2ccc(Br)cc2c2cc(Br)ccc21` (stereo not shown) [S43] were, in that order, 11.7 (X10E06)/mm3 and 1.7.
Regarding `O=C(Cn1c2ccc(Br)cc2c2cc(Br)ccc21)NO` [S231], in test [1] (setting [2]), the “Neurogenesis # BrdU+ Cells” value is reported as 13.1 (X10E06)/mm3. At p70 (NAMPT), the Binding competition was determined as 1.7.
As to `CN(C)C(=O)Cn1c2ccc(Br)cc2c2cc(Br)ccc21` [S215], in test [1] (setting [2]), the “Neurogenesis # BrdU+ Cells” value was 8.3 (X10E06)/mm3. For the same compound, at p70 (NAMPT), the Binding competition is on record as 3.6.
On to `OCc1cc2c(cn1)[nH]c1ccc(Br)cc12` [S204], for which the “Neurogenesis # BrdU+ Cells” value in test [1] (setting [2]) is 14.2 (X10E06)/mm3. Also, the Binding competition on p70 (NAMPT) is listed as 2.3.
As for `COc1ccc2[nH]cc(CCNC(C)=O)c2c1` [S193], in test [1] (setting [2]), the “Neurogenesis # BrdU+ Cells” value is on record as 7.8 (X10E06)/mm3. The Binding competition on p70 (NAMPT) was determined as 1.1.
The like results for `CN1CCN2c3ncccc3Cc3ccccc3C2C1` (stereo not shown) [S126, Remeron, reference compound] were, in that order, 8.8 (X10E06)/mm3 and 1.3.
As to `CNCC(O)CN1c2ccccc2CCc2ccccc21` (stereo not shown) [S143], the “Neurogenesis # BrdU+ Cells” value in test [1] (setting [2]) is 7.3 (X10E06)/mm3. At p70 (NAMPT), the Binding competition was 1.3.
In the case of `Nc1ccc(SCC(O)Cn2c3ccc(Br)cc3c3cc(Br)ccc32)cc1` (stereo not shown) [S96], the “Neurogenesis # BrdU+ Cells” value in test [1] (setting [2]) is on record as 8.7 (X10E06)/mm3. Besides, the Binding competition at p70 (NAMPT) is 3.9.
In the case of `CN(C)CCCC1(c2ccc(F)cc2)OCc2cc(C#N)ccc21` (stereo not shown) [S119, Celexa, reference compound], the “Neurogenesis # BrdU+ Cells” value in test [1] (setting [2]) is reported as 8.6 (X10E06)/mm3. The Binding competition on p70 (NAMPT) was 1.2.
Take `Cc1c(C)n(CC(O)CNc2ccccc2)c2ccc(Br)cc12` (stereo not shown) [S18]: the “Neurogenesis # BrdU+ Cells” value in test [1] (setting [2]) is 10.9 (X10E06)/mm3. The Binding competition on p70 (NAMPT) turned out to be 1.7.
For `N#Cc1ccc2[nH]c3ccc(Br)cc3c2c1` [S216], the “Neurogenesis # BrdU+ Cells” value in test [1] (setting [2]) is given as 13.0 (X10E06)/mm3. At p70 (NAMPT), the Binding competition was found to be 4.4.
Consider `C=C/C=N\C=C\NCC(O)Cn1c2ccc(Br)cc2c2cc(Br)ccc21` (stereo not shown) [S58], for which the “Neurogenesis # BrdU+ Cells” value in test [1] (setting [2]) is 7.2 (X10E06)/mm3. The Binding competition on p70 (NAMPT) was 2.5.
On to `OC(CNc1ccccn1)Cn1c2ccc(Br)cc2c2cc(Br)ccc21` (stereo not shown) [S38], for which, in test [1] (setting [2]), the “Neurogenesis # BrdU+ Cells” value is given as 13.7 (X10E06)/mm3. Moreover, on p70 (NAMPT), the Binding competition is 4.2.
Regarding `Cc1ccc2[nH]c3ccc(Br)cc3c2c1` [S228], the “Neurogenesis # BrdU+ Cells” value in test [1] (setting [2]) is 20.2 (X10E06)/mm3. Moreover, the Binding competition at p70 (NAMPT) was found to be 2.0.
Turning to `COc1cccc(SCC(F)Cn2c3ccc(Br)cc3c3cc(Br)ccc32)c1` (stereo not shown) [S79], the “Neurogenesis # BrdU+ Cells” value in test [1] (setting [2]) was 13.7 (X10E06)/mm3. Besides, on p70 (NAMPT), the Binding competition stood at 1.0.
In the case of `O=S(=O)(CC(O)Cn1c2ccc(Br)cc2c2cc(Br)ccc21)c1ccccc1` (stereo not shown) [S28], the “Neurogenesis # BrdU+ Cells” value in test [1] (setting [2]) is 13.6 (X10E06)/mm3. The Binding competition at p70 (NAMPT) is recorded as 2.8.
Taken in the same sequence, the figures for `O=C1CC2(CCCC2)CC(=O)N1CCCCN1CCN(c2ncccn2)CC1` [S127, Buspar, reference compound] were 6.9 (X10E06)/mm3 and 1.2.
On to `CN(C)CC(F)CN1c2ccccc2CCc2ccccc21` (stereo not shown) [S148, reference compound], for which, in test [1] (setting [2]), the “Neurogenesis # BrdU+ Cells” value was 11.3 (X10E06)/mm3. The Binding competition on p70 (NAMPT) turned out to be 1.3.
Consider `OC(COC1CCCCC1)Cn1c2ccc(Br)cc2c2cc(Br)ccc21` (stereo not shown) [S178], for which the “Neurogenesis # BrdU+ Cells” value in test [1] (setting [2]) is 13.8 (X10E06)/mm3. Moreover, the Binding competition at p70 (NAMPT) is on record as 1.7.
As to `N[C@@H]1C[C@H]1c1ccccc1` [S118, Parnate, reference compound], the “Neurogenesis # BrdU+ Cells” value in test [1] (mouse, in vivo) was 8.3 (X10E06)/mm3. On p70 (NAMPT), the Binding competition is 1.3.
In the case of `COc1c(Br)ccc2c1c1cc(Br)ccc1n2CC(O)CNc1ccccc1` (stereo not shown) [S168], the “Neurogenesis # BrdU+ Cells” value in test [1] (setting [2]) is 14.6 (X10E06)/mm3. On p70 (NAMPT), the Binding competition is reported as 3.5.
Taken in the same sequence, the figures for `OC(CNc1ccccc1)Cn1c2ccc(I)cc2c2cc(I)ccc21` (stereo not shown) [S63] were 8.3 (X10E06)/mm3 and 1.5.
Taken in the same sequence, the figures for `[N-]=[N+]=Nc1cccc(NCC(O)Cn2c3ccc(Br)cc3c3cc(Br)ccc32)c1` (stereo not shown) [S36] were 8.9 (X10E06)/mm3 and 3.1.
As for `[O-][S+](CC(O)Cn1c2ccc(Br)cc2c2cc(Br)ccc21)c1ccccc1` (stereo not shown) [S27], the “Neurogenesis # BrdU+ Cells” value in test [1] (setting [2]) is on record as 8.1 (X10E06)/mm3. For the same compound, the Binding competition at p70 (NAMPT) came to 2.8.
Consider `OC(COc1ccccc1)Cn1c2ccc(Br)cc2c2cccnc21` (stereo not shown) [S186], for which the “Neurogenesis # BrdU+ Cells” value in test [1] (setting [2]) is 8.1 (X10E06)/mm3. For the same compound, the Binding competition at p70 (NAMPT) stood at 3.4.
Taken in the same sequence, the figures for `COc1ccc(SCC(O)Cn2c3ccc(Br)cc3c3cc(Br)ccc32)cc1` (stereo not shown) [S78] were 14.1 (X10E06)/mm3 and 2.7.
The like results for `O=C(O)CCc1c[nH]c2ccccc12` [S242] were, in that order, 10.8 (X10E06)/mm3 and 1.2.
In the case of `N#Cc1ccc2c(c1)c1cc(C#N)ccc1n2CC(O)CSc1ccccc1` (stereo not shown) [S110], the “Neurogenesis # BrdU+ Cells” value in test [1] (setting [2]) is on record as 10.5 (X10E06)/mm3. In addition, the Binding competition on p70 (NAMPT) was 6.2.
As for `[O-][n+]1ccc2c(c1)c1cc(Br)ccc1n2CC(O)COc1ccccc1` (stereo not shown) [S195], in test [1] (setting [2]), the “Neurogenesis # BrdU+ Cells” value is recorded as 9.0 (X10E06)/mm3. In addition, the Binding competition at p70 (NAMPT) came to 1.1.
Taken in the same sequence, the figures for `OCCCc1cn(CC(O)Cn2c3ccc(Br)cc3c3cc(Br)ccc32)nn1` (stereo not shown) [S23] were 7.4 (X10E06)/mm3 and 2.1.
As for `O=S(=O)(C[C@H](O)Cn1c2ccc(Br)cc2c2cc(Br)ccc21)c1ccccc1` [S51], the “Neurogenesis # BrdU+ Cells” value in test [1] (setting [2]) is given as 13.2 (X10E06)/mm3. The Binding competition at p70 (NAMPT) was 2.4.
For `COc1ccc(SCC(F)Cn2c3ccc(Br)cc3c3cc(Br)ccc32)cc1` (stereo not shown) [S80], the “Neurogenesis # BrdU+ Cells” value in test [1] (setting [2]) is given as 13.0 (X10E06)/mm3. In addition, the Binding competition at p70 (NAMPT) came to 0.9.
Taken in the same sequence, the figures for `COc1cccc(NCC(O)Cn2c3ccccc3c3cc(Br)ccc32)c1` (stereo not shown) [S29] were 9.5 (X10E06)/mm3 and 4.2.
The like results for `O=C(O)c1cc2c3cc(Br)ccc3n(CC(O)COc3ccccc3)c2cn1` (stereo not shown) [S173] were, in that order, 12.8 (X10E06)/mm3 and 1.0.
Take `NC(COc1ccccc1)Cn1c2ccc(Br)cc2c2cc(Br)ccc21` (stereo not shown) [S97]: the “Neurogenesis # BrdU+ Cells” value in test [1] (setting [2]) is given as 7.6 (X10E06)/mm3. Further, the Binding competition at p70 (NAMPT) turned out to be 2.0.
